Experimental data: patent US20240000872A1, “NOVEL BACTERIOPHAGE THAT LYSES ACINETOBACTER GENUS BACTERIA HAVING RESISTANCE TO ANTIBIOTICS” (priority 2020, published 2024)

Tested on: Acinetobacter baumannii strains
Assay: Antibiotic susceptibility test (CLSI disk diffusion test method, read per CLSI 2016)
Type: cell-based
Parameters: antibiotic susceptibility test value / susceptibility test value (number given before S/I/R) / antibiotic susceptibility value: unit not given here
Method: (§1) Strain identification was performed using a kit such as AT 32 GN system (bioMérieux, Marcy l'Etoile, France). […] In Table 2 below, S, I, and R are the results obtained by evaluating susceptibility to the antibacterial agents, in which ‘S’ means susceptible, ‘I’ means intermediate, and ‘R’ means resistant.
as §1, with “as ATB” for “as AT”, “system (bioMédrieux,” for “system (bioMérieux,”, “Table 6” for “Table 2”
as §1, with “as ATB” for “as AT”, “Table 10” for “Table 2”, “susceptible, T” for “susceptible, ‘I’”

piperacillin-tazobactam
R: antibiotic susceptibility class (host strain YMC14/01/C29) | antibiotic susceptibility class (host strain YMC14/01/IP122) | antibiotic susceptibility class (host strain YMC14/01/L8) | antibiotic susceptibility class (host strain YMC14/01/P31) | antibiotic susceptibility class (host strain YMC14/01/P117) | antibiotic susceptibility class (host strain YMC14/01/P224) | antibiotic susceptibility class (host strain YMC14/01/P727) | antibiotic susceptibility class (host strain YMC14/01/P728) | antibiotic susceptibility class (host strain YMC14/01/R130) | antibiotic susceptibility class (host strain YMC14/01/R160) | antibiotic susceptibility class (host strain YMC14/01/R198) | antibiotic susceptibility class (host strain YMC14/01/R257) | antibiotic susceptibility class (host strain YMC14/01/R270) | antibiotic susceptibility class (host strain YMC14/01/R324) | antibiotic susceptibility class (host strain YMC14/01/R443) | antibiotic susceptibility class (host strain YMC14/01/R451) | antibiotic susceptibility class (host strain YMC14/01/R560) | antibiotic susceptibility class (host strain YMC14/01/R617) | antibiotic susceptibility class (host strain YMC14/01/R671) | antibiotic susceptibility class (host strain YMC14/01/R732) | antibiotic susceptibility class (host strain YMC14/01/R767) | antibiotic susceptibility class (host strain YMC14/01/R904) | antibiotic susceptibility class (host strain YMC14/01/R905) | antibiotic susceptibility class (host strain YMC14/01/R921) | antibiotic susceptibility class (host strain YMC14/01/R941) | antibiotic susceptibility class (host strain YMC14/01/R958) | antibiotic susceptibility class (host strain YMC14/01/R1006) | antibiotic susceptibility class (host strain YMC14/01/R1199) | antibiotic susceptibility class (host strain YMC14/01/R1659) | antibiotic susceptibility class (host strain YMC14/01/R1722) | antibiotic susceptibility class (host strain YMC14/01/R1752) | antibiotic susceptibility class (host strain YMC14/01/R2429) | antibiotic susceptibility class (host strain YMC14/01/R2572) | antibiotic susceptibility class (host strain YMC14/01/R2855) | antibiotic susceptibility class (host strain YMC14/01/R2945) | antibiotic susceptibility class (host strain YMC14/01/R3007) | antibiotic susceptibility class (host strain YMC14/01/R3129) | antibiotic susceptibility class (host strain YMC14/01/R3317) | antibiotic susceptibility class (host strain YMC14/01/R3474) | antibiotic susceptibility class (host strain YMC14/01/R3574) | antibiotic susceptibility class (host strain YMC14/01/U313) | antibiotic susceptibility class (host strain YMC14/01/U318)
128: antibiotic susceptibility test value (host strain YMC14/01/C29) | antibiotic susceptibility test value (host strain YMC14/01/IP122) | antibiotic susceptibility test value (host strain YMC14/01/L8) | antibiotic susceptibility test value (host strain YMC14/01/P31) | antibiotic susceptibility test value (host strain YMC14/01/P117) | antibiotic susceptibility test value (host strain YMC14/01/P224) | antibiotic susceptibility test value (host strain YMC14/01/P727) | antibiotic susceptibility test value (host strain YMC14/01/P728) | antibiotic susceptibility test value (host strain YMC14/01/R130) | antibiotic susceptibility test value (host strain YMC14/01/R160) | antibiotic susceptibility test value (host strain YMC14/01/R198) | antibiotic susceptibility test value (host strain YMC14/01/R257) | antibiotic susceptibility test value (host strain YMC14/01/R270) | antibiotic susceptibility test value (host strain YMC14/01/R324) | antibiotic susceptibility test value (host strain YMC14/01/R443) | antibiotic susceptibility test value (host strain YMC14/01/R451) | antibiotic susceptibility test value (host strain YMC14/01/R560) | antibiotic susceptibility test value (host strain YMC14/01/R617) | antibiotic susceptibility test value (host strain YMC14/01/R671) | antibiotic susceptibility test value (host strain YMC14/01/R732) | antibiotic susceptibility test value (host strain YMC14/01/R767) | antibiotic susceptibility test value (host strain YMC14/01/R904) | antibiotic susceptibility test value (host strain YMC14/01/R905) | antibiotic susceptibility test value (host strain YMC14/01/R921) | antibiotic susceptibility test value (host strain YMC14/01/R941) | antibiotic susceptibility test value (host strain YMC14/01/R958) | antibiotic susceptibility test value (host strain YMC14/01/R1006) | antibiotic susceptibility test value (host strain YMC14/01/R1199) | antibiotic susceptibility test value (host strain YMC14/01/R1659) | antibiotic susceptibility test value (host strain YMC14/01/R1722) | antibiotic susceptibility test value (host strain YMC14/01/R1752) | antibiotic susceptibility test value (host strain YMC14/01/R2429) | antibiotic susceptibility test value (host strain YMC14/01/R2572) | antibiotic susceptibility test value (host strain YMC14/01/R2855) | antibiotic susceptibility test value (host strain YMC14/01/R2945) | antibiotic susceptibility test value (host strain YMC14/01/R3007) | antibiotic susceptibility test value (host strain YMC14/01/R3129) | antibiotic susceptibility test value (host strain YMC14/01/R3317) | antibiotic susceptibility test value (host strain YMC14/01/R3474) | antibiotic susceptibility test value (host strain YMC14/01/R3574) | antibiotic susceptibility test value (host strain YMC14/01/U313)
